Laboratory results as given in PubChem BioAssay AID1996.
≈ marks a conversion by molar mass, not a printed value.

Conditions: buffer; pH 7.4; 200.0 µM

| SMILES | solubility kinetic [µg/mL] |
| --- | --- |
| O=C(CCn1c(=S)oc2ccccc21)NCCC1=CCCCC1 | 0.8 (≈ 2.42 µM) |
| O=C(COc1ccccc1Cl)Nc1cccnc1 | 33.7 (≈ 128 µM) |
| Nc1ccc(OCc2ccco2)cc1 | 19.5 (≈ 103 µM) |
| COc1cc(OC)c(OC)cc1CNCc1ccco1 | 38.7 (≈ 140 µM) |
| COc1ccc(OC)c(CNc2ccc3c(c2)nc(C)n3C)c1 | 37.1 (≈ 119 µM) |
| Cc1ccccc1N1C(=O)CC2(CCCC2)CC1=O | 37.2 (≈ 145 µM) |
| O=C(CCC(=O)c1ccc(-c2ccccc2)cc1)Nc1cccnc1 | 0.7 (≈ 2.12 µM) |
| CC(C)(C)C(=O)NC(=S)Nc1cccc(C(=O)O)c1 | > 42.1 |
| CN(C)c1ccc(C(=O)NC2(N3CCC3=O)CCCC2)cc1 | > 45.2 |
| CCNS(=O)(=O)c1ccc(CCC(=O)NCc2ccccn2)cc1 | > 52.1 |
| Cc1cccn2cc(CCNC(=O)c3cccs3)nc12 | > 42.8 |
| O=C(O)[C@H](Cc1ccccc1)Nc1ccc([N+](=O)[O-])cn1 | > 43.1 |
| CCCC1Cc2[nH]c(=O)c(C#N)cc2CO1 (stereo unspecified) | > 32.7 |
| COc1ccc(Cl)cc1N1C(=O)CC(Sc2ccccc2N)C1=O (stereo unspecified) | < 0.4 |
| O=C(COC(=O)C1=COCCO1)NCc1ccc(F)cc1 | 40.3 (≈ 136 µM) |
| O=c1c(Cc2ccccc2)c(O)ccn1Cc1ccco1 | 25.9 (≈ 92.1 µM) |
| O=C(C[n+]1ccc2ccccc2c1)c1ccccc1.[Br-] | > 49.2 |
| C=CCOc1ccc(/C=C/C(=O)OCC(=O)NC2CCCCCC2)cc1 | < 0.8 |
| Nc1cc(N)nc(SCC(=O)NNC(=O)Cc2ccccc2)n1 | > 49.9 |
| Fc1ccc(N2CCN(C3CCC(c4ccccc4)CC3)CC2)cc1 (stereo unspecified) | 1.1 (≈ 3.25 µM) |
| CC(=O)Nc1ccc(NC(=O)CSc2ccc([N+](=O)[O-])cn2)cc1 | 3 (≈ 8.66 µM) |
| COc1ccccc1NC(=O)/C=C\c1ccco1 | 25.8 (≈ 106 µM) |
| O=C(CCc1ccccc1)NC1CCCc2ccccc21 (stereo unspecified) | 19.2 (≈ 68.7 µM) |
| Cc1ccc2c(c1)C(=O)C(=O)N2CCCOc1ccccc1 | 2.7 (≈ 9.14 µM) |
| CC(CCc1ccccc1)NC(=O)C1CC1 (stereo unspecified) | > 32.6 |

| SMILES | solubility kinetic [µg/mL] |
| --- | --- |
| Clc1ccc2c(NCc3ccccn3)ccnc2c1 | > 40.5 |
| CC(C)(C)C(=O)Cn1ncc(N2CCOCC2)c(Cl)c1=O | > 47.1 |
| COc1cc(-c2noc(CCC(=O)NC3CCCCC3)n2)cc(OC)c1OC | 10 (≈ 25.7 µM) |
| Cc1ccccc1NC(=S)N1CCN(c2ccccc2Cl)CC1 | 17.5 (≈ 50.6 µM) |
| COc1ccc(C(=O)O/N=C(\N)c2ccccn2)cc1 | > 40.7 |
| COc1ccccc1CNC(=O)c1ccc(C)s1 | > 39.2 |
| O=C(O)c1cncc(SCc2ccccc2)n1 | 34.5 (≈ 140 µM) |
| COc1ccccc1CN(C)C(=O)CN1C(=O)c2ccccc2C1=O | 17 (≈ 50.2 µM) |
| CSc1ccccc1C(=O)N(C)C(c1ccccc1)c1ccccc1 | 10.6 (≈ 30.5 µM) |
| O=C(c1cc(Cl)ccc1Cl)N1CCc2ccccc21 | 12.1 (≈ 41.4 µM) |
| COc1ccc(NS(=O)(=O)c2ccc(N3CCCC3)c(NC(=S)Nc3cccc(C)c3C)c2)cc1 | 7.6 (≈ 14.9 µM) |
| O=C(Cc1ccsc1)NCC(=O)Nc1ccc(F)c(F)c1 | > 46.5 |
| COc1cccc2c1SCc1ccccc1C2CC(N)=O (stereo unspecified) | 39.2 (≈ 131 µM) |
| O=C(NCCCn1ccnc1)c1ccc2ccccc2c1 | 34.8 (≈ 125 µM) |
| COc1ccc2c(c1)c(C(C)=O)c(C)n2CCc1ccccc1 | < 0.7 |
| CC1(C)CC2CC(C)(CN2C(=O)COC(=O)c2ccc(O)cc2O)C1 (stereo unspecified) | 23.4 (≈ 67.4 µM) |
| CCOC(=O)C1=C(C)NC(C)=C(C(=O)OCC)C1C(=O)OCC(=O)N(C)Cc1ccccc1 | 2.8 (≈ 6.11 µM) |
| O=C1Nc2ccccc2Sc2ccccc21 | 1.2 (≈ 5.28 µM) |
| COc1ccc(S(=O)(=O)NCc2ccc(F)cc2)cc1OC | > 48.8 |
| O=C(Cc1ccc(Br)cc1)Nc1ccccc1N1CCCC1 | 2.6 (≈ 7.24 µM) |
| Cc1ccc(OCC(=O)NCCCNC(=O)c2cccnc2)cc1C | > 51.2 |
| COCCCNC(=O)COc1ccc2oc3c(c2c1)CCCC3 | 44.2 (≈ 139 µM) |
| Cc1ccc(NC(=O)NCCCN2CCCC2=O)c(C)c1 | > 43.4 |
| Cc1c(C(=O)Cc2ccccc2)n(C)c2ccccc12 | 2.5 (≈ 9.49 µM) |
| O=C(COc1ncnc2cc(Cl)ccc12)c1ccccc1 | 3.2 (≈ 10.7 µM) |

| SMILES | solubility kinetic [µg/mL] |
| --- | --- |
| Cc1cccn2c(=O)nc(SCC(=O)N3CC(C)OC(C)C3)nc12 (stereo unspecified) | 51.7 (≈ 148 µM) |
| N#CCC(=O)Nc1ncc(Cc2ccccc2Cl)s1 | 1 (≈ 3.43 µM) |
| Cc1cnc(C(=O)OCC(=O)Nc2ccc(Cl)cn2)cn1 | > 46 |
| NC(=O)c1ccc(NC(=O)COC(=O)C2CCN(S(=O)(=O)c3cccs3)CC2)cc1 | 25.1 (≈ 55.6 µM) |
| c1ccc(Oc2ncnc3sccc23)cc1 | 25.1 (≈ 110 µM) |
| O=C(CN1C(=O)COc2ccc(Cl)cc21)N1CCOCC1 | > 46.6 |
| COC(=O)Nc1ccc(SCC(=O)c2ccccc2)cc1 | 3.4 (≈ 11.3 µM) |
| COc1cccc(C(=O)NC2CC3CCC(C2)N3Cc2ccccc2)c1 (stereo unspecified) | 52.2 (≈ 149 µM) |
| CC(C)(C)c1ccc(C(=O)OCCN2CCCCC2)cc1.Cl | 46 |
| CCc1cccc(NC(=O)Cn2cc(C=O)c3ccccc32)c1 | 0.5 (≈ 1.63 µM) |
| CCOc1ccc(NC(=O)c2ccc(Cl)c(NC(=O)c3ccco3)c2)cc1 | < 0.4 |
| CCOc1cc(S(=O)(=O)NCc2cccnc2)c(C)cc1C | > 48.1 |
| Cn1cnc(S(=O)(=O)Nc2ccc3c(c2)OCCO3)c1 | 30.2 (≈ 102 µM) |
| O=C(NCCCc1ccccc1)C(=O)c1c[nH]c2ccccc12 | 1.2 (≈ 3.92 µM) |
| O=[N+]([O-])c1cccnc1Sc1ccc(Br)cc1 | 1.7 (≈ 5.46 µM) |
| O=C(NCc1ccccn1)Nc1ccccc1Cl | > 39.3 |
| CC(C)c1nc2sc3c(c2c(=O)[nH]1)CC(C)(C)OC3 | 6.4 (≈ 23 µM) |
| CCOc1ccccc1C(=O)Nc1cccc2cccnc12 | < 0.3 |
| Cc1c(C)c(C)c2[nH]c(-c3ccc4c(c3)OCO4)nc2c1C | < 0.3 |
| Cc1nc2cc(NC(=O)Nc3cccc(F)c3)ccc2n1C | 3.3 (≈ 11.1 µM) |
| CCOc1ccccc1N1CCN(C(=O)NC2CCCCC2)CC1 | > 49.7 |
| CSc1nsc(SCC(=O)NCc2ccc(C)cc2)n1 | 11.8 (≈ 36.3 µM) |
| O=C(NCCCO)/C(=C\c1ccco1)NC(=O)c1ccco1 | > 45.6 |
| Cc1cccc(N=C2NC(=O)C(CO)(CO)S2)c1 | 22.4 (≈ 84.1 µM) |
| Cc1ccc(NC(=S)N2CCCCC2CO)cc1C (stereo unspecified) | > 41.8 |

| SMILES | solubility kinetic [µg/mL] |
| --- | --- |
| CC(C)(C)c1ccc(/C=C/C(=O)NCCCN2CCOCC2)cc1 | 32.3 (≈ 97.7 µM) |
| COCc1c(CCl)cnc(C)c1O | > 30.2 |
| COc1ccccc1CNC(=O)CS(=O)(=O)c1ccccc1 | 44 (≈ 138 µM) |
| CCN1CCCC1CNC(=O)C(=O)NC(C)C (stereo unspecified) | > 36.2 |
| CC(C)CC(OC(=O)c1ccco1)C(=O)NC1CCCC1 (stereo unspecified) | 41.1 (≈ 140 µM) |
| N[C@@H](Cc1c[nH]c2ccc(O)cc12)C(=O)O | 32.6 (≈ 148 µM) |
| Cc1ccc(NC(=O)c2sccc2C)nc1 | 34.8 (≈ 150 µM) |
| Cc1ccccc1SCC(=O)OCC(=O)NCc1ccccc1 | > 49.4 |
| Cc1ccsc1-c1cc(C(=O)O)c2c(ccc3ccccc32)n1 | > 47.9 |
| CCOC(=O)c1c(O)c2cc(Cl)ccc2n(CC)c1=O | > 44.4 |
| COc1ccc(N(CC(=O)N2CCOCC2)S(C)(=O)=O)cc1OC | > 53.8 |
| NC(=O)c1c(NC(=O)c2ccccc2)sc2c1CCC2 | 1.3 (≈ 4.54 µM) |
| COCC(C)NC(=O)C(C)N1c2cccc3cccc(c23)S1(=O)=O (stereo unspecified) | 50.9 (≈ 146 µM) |
| O=S(=O)(c1ccc2ccccc2c1)N1CCOCC1 | 20.2 (≈ 72.8 µM) |
| O=C1NC2(CCCCCC2)C(=O)N1Cc1c(F)cccc1Cl | 9.6 (≈ 29.6 µM) |
| COc1ccc(C(=O)N2CCC3(CC2)OCCO3)cc1 | > 41.6 |
| Cc1cccc(C(=O)Nc2ccc(NC(=O)CN3CCOCC3)cc2)c1 | 22.7 (≈ 64.2 µM) |
| COc1ccc(OC)c(N/C(C)=C/C(=O)c2ccncc2)c1 | 36.9 (≈ 124 µM) |
| CCNC(=O)C12CCC(C)(c3nc4cc(C)c(C)cc4nc31)C2(C)C (stereo unspecified) | 47.4 (≈ 140 µM) |
| O=[N+]([O-])c1ccc2nc(Cl)nc(-c3ccccc3)c2c1 | 4.8 (≈ 16.8 µM) |
| CCOC(=O)c1sc(=NC(=O)c2ccc(C)cc2)n(C)c1C | < 0.3 |
| CCN(CC(=O)Nc1ccc(S(=O)(=O)N2CCCC2)cc1)CC(=O)Nc1ccccc1C(F)(F)F | 21.2 (≈ 41.4 µM) |
| CC1CCN(C(=O)c2ccc3c(c2)OCO3)CC1 | 36.9 (≈ 149 µM) |
| N#CCc1cccnc1Sc1ccc(Cl)cc1 | > 39.1 |
| COc1ccc(NC(=O)c2ccc3c(c2)NC(=O)CO3)cc1OC | 10.2 (≈ 31.1 µM) |

| SMILES | solubility kinetic [µg/mL] |
| --- | --- |
| Cn1c(=O)c(S(=O)C2CCCCC2)c(O)c2ccccc21 (stereo unspecified) | > 45.8 |
| COc1ccccc1NC(=O)COC(=O)/C=C/c1ccc(OC)c(OC)c1 | 4.1 (≈ 11 µM) |
| COC(=O)[C@H](c1ccccc1Cl)N1CCc2sccc2C1 | 15.1 (≈ 46.9 µM) |
| CCN1CCN(C(=O)C(C)Sc2nc3nc(C)cc(C)n3n2)CC1 (stereo unspecified) | > 52.3 |
| CCC(=NCc1cccnc1)c1c(O)n(-c2ccccc2C)c(=O)[nH]c1=O | > 54.7 |
| O=c1oc(-c2ccccc2F)nc2scc(-c3ccccc3)c12 | < 0.7 |
| Cc1ccc(S(=O)(=O)N(C)C)cc1NC(=O)C(C)OC(=O)C1CCCCC1 (stereo unspecified) | > 59.5 |
| O=c1c2cc([N+](=O)[O-])ccc2nc2n1CCC2 | > 34.7 |
| Cc1cnc(C(=O)OCC(=O)NCc2ccc(Cl)cc2)cn1 | > 48 |
| CCCCCCC(=O)Nc1ccc(S(=O)(=O)Nc2onc(C)c2C)cc1 | > 56.9 |
| O=C(NCCN1CCOCC1)C1CC(=O)N(c2ccc(F)cc2)C1 (stereo unspecified) | 48.8 (≈ 146 µM) |
| COCCCNC(=O)CN1C(=O)c2cccc3cccc1c23 | > 44.8 |
| C=C(C)n1c(=O)n(Cc2ccccc2C)c2ccccc21 | 16 (≈ 57.5 µM) |
| COC(=O)c1ccc(/C=N/OCC(=O)NCc2ccc(F)cc2)cc1 | 10.3 (≈ 29.9 µM) |
| COc1ccc(N2CCN(CC(=O)NCc3ccc(Cl)cc3)CC2)cc1 | 2.2 (≈ 5.88 µM) |
| Cc1cccc(C(=O)OCC(=O)NCC(C)C)c1O | 13.6 (≈ 51.3 µM) |
| COc1cc(/C=C2\N=C(c3ccccc3)OC2=O)ccc1OC(C)=O | > 50.6 |
| O=C(c1c[nH]c2ccccc12)N1CCOCC1 | 26.3 (≈ 114 µM) |
| O=C(Nc1nccs1)c1ccc(Cl)nc1 | > 36 |
| CN(Cc1ccccc1)C(=O)COc1cccnc1[N+](=O)[O-] | > 45.2 |
| O=C(Nc1cccc(-c2cn3ccccc3n2)c1)c1ccccc1 | 21 (≈ 67 µM) |
